Laboratory results reported in US20260015350A1, “AZAQUINAZOLINE PAN-KRAS INHIBITORS” (Mirati Therapeutics, Inc., priority 2022, published 2026).

Columns and labels:
KRas^G12D = molecular target: T1, KRas^G12D (Homo sapiens, UniProt P01116, G12D); assay: KRas binding assay (TR-FRET tracer displacement), KRas G12D
T1 construct: Biotinylated KRas (corresponding to amino acids 1-169, produced at Accelegan Inc.); biotin (biotinylated); purchased Accelegan Inc

KRas^G12R = molecular target: T2, KRas^G12R (Homo sapiens, UniProt P01116, G12R); assay: KRas binding assay (TR-FRET tracer displacement), KRas G12R
T2 construct: Biotinylated KRas (corresponding to amino acids 1-169, produced at Accelegan Inc.); biotin (biotinylated); purchased Accelegan Inc

KRas^G12V = molecular target: T3, KRas^G12V (Homo sapiens, UniProt P01116, G12V); assay: KRas binding assay (TR-FRET tracer displacement), KRas G12V
T3 construct: Biotinylated KRas (corresponding to amino acids 1-169, produced at Accelegan Inc.); biotin (biotinylated); purchased Accelegan Inc

[1] = system: KRas-mediated phosphorylation of ERK in MKN1 cells; assay: Inhibition of KRas-mediated phosphorylation of ERK (Cisbio HTRF pERK), MKN1 cells; type: cell-based; conditions: Homo sapiens, MKN-1
Method in brief: (§1)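 Overnight culture at 37° C./5% CO2 in RPMI containing 10% FBS, seeded 6,000 cells per well, preceded the assay. A covered 4-hour incubation at room temperature followed, then HTRF signal for phosphorylated ERK was measured.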

[2] = system: KRas-mediated phosphorylation of ERK in PSN1 cells; assay: Inhibition of KRas-mediated phosphorylation of ERK (Cisbio HTRF pERK), PSN1 cells; type: cell-based; conditions: Homo sapiens
Method in brief: as §1

[3] = system: KRas-mediated phosphorylation of ERK in AsPC-1 cells; assay: Inhibition of KRas-mediated phosphorylation of ERK (Cisbio HTRF pERK), AsPC-1 cells; type: cell-based; conditions: Homo sapiens, ASPC1, AsPC-1 cells; HTRF pERK
Method in brief: (§2)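 6,000 cells/well; cpd 10 uM top, 3-fold x10, 0.8% DMSO final; 3 hr incubation; Min ctrl Trametinib 0.2 uM; lysis 40 min 4° C shaking; d2 + Cryptate Ab mix, 2 hr RT; HTRF read.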

[4] = system: KRas-mediated phosphorylation of ERK in H727 cells; assay: Inhibition of KRas-mediated phosphorylation of ERK (Cisbio HTRF pERK), H727 cells; type: cell-based; conditions: Homo sapiens, NCI-H727, H727 cells; HTRF pERK
Method in brief: as §2

[5] = system: KRas-mediated phosphorylation of ERK in A549 cells; assay: Inhibition of KRas-mediated phosphorylation of ERK (Cisbio HTRF pERK), A549 cells; type: cell-based; conditions: Homo sapiens, HTRF pERK
Method in brief: (§3)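 Phosphorylated ERK was quantified by HTRF using d2-conjugate and Cryptate antibodies added to lysates for 2 hrs at room temperature.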

[6] = system: KRas-mediated phosphorylation of ERK in H460 cells; assay: Inhibition of KRas-mediated phosphorylation of ERK (Cisbio HTRF pERK), H460 cells; type: cell-based; conditions: Homo sapiens, NCI-H460, HTRF pERK
Method in brief: as §2

[7] = system: KRas-mediated phosphorylation of ERK in HCT116 cells; assay: Inhibition of KRas-mediated phosphorylation of ERK (Cisbio HTRF pERK), HCT116 cells; type: cell-based; conditions: Homo sapiens, HCT-116, HTRF pERK
Method in brief: as §3

[8] = system: KRas-mediated phosphorylation of ERK in H358 cells; assay: Inhibition of KRas-mediated phosphorylation of ERK (Cisbio HTRF pERK), H358 cells; type: cell-based; conditions: Homo sapiens, NCI-H358, HTRF pERK
Method in brief: as §2

T2 sequence (P01116 1-169 isoform P01116-2 G12R): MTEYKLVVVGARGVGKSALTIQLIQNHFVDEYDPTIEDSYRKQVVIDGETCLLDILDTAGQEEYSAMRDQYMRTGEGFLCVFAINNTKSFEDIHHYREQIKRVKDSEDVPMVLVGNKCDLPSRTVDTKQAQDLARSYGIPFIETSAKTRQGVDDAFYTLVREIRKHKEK
T1 sequence (P01116 1-169 isoform P01116-2 G12D): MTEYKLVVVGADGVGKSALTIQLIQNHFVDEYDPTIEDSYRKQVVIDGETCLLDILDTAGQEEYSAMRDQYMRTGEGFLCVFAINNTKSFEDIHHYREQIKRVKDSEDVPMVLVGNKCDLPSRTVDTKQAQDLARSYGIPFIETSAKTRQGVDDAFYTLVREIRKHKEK
T3 sequence (P01116 1-169 isoform P01116-2 G12V): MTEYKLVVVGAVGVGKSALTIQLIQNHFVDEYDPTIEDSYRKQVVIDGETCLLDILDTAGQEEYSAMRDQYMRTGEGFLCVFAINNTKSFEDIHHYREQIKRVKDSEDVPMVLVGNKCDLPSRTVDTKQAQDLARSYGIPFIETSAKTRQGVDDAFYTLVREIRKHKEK

Compound | IC50 (KRas^G12D) [nM] | IC50 (KRas^G12R) [nM] | IC50 (KRas^G12V) [nM] | IC50 [1] [nM] | IC50 [2] [nM] | IC50 [3] [nM] | IC50 [4] [nM] | IC50 [5] [nM] | IC50 [6] [nM] | IC50 [7] [nM] | IC50 [8] [nM]
C#Cc1c(F)ccc2cc(O)cc(-c3ncc4c(N5CCCC6(CC(O)C6)C5)nc(OC[C@]56CCCN5[C@H](COC(=O)N(C)C)CC6)nc4c3F)c12 (stereo partly drawn) [Example 835, ((3S,7aR)-7a-(((7-(8-ethynyl-7-fluoro-3-hydroxynaphthalen-1-yl)-8-fluoro-4-(2-hydroxy-6-azaspiro[3.5]nonan-6-yl)pyrido[4,3-d]pyrimidin-2-yl)oxy)methyl)hexahydro-1H-pyrrolizin-3-yl)methyl dimethylcarbamate] | 3 | < 2 | < 2 | 20 | 1620 | 146 | 72 | 192 | 72 | 137 | 31
CCc1c(F)ccc2cc(O)cc(-c3ncc4c(N5CCOC[C@@]6(CCO6)C5)nc(OC[C@@]56CCCN5C[C@H](F)C6)nc4c3F)c12 [Example 836, 5-ethyl-6-fluoro-4-(8-fluoro-2-(((2R,7aS)-2-fluorotetrahydro-1H-pyrrolizin-7a(5H)-yl)methoxy)-4-((R)-1,6-dioxa-9-azaspiro[3.6]decan-9-yl)pyrido[4,3-d]pyrimidin-7-yl)naphthalen-2-ol] | 24 | 4 | 6 | 19 | 9790 | 386 | 231 | 69 | 32 | 119 | 22
CCc1c(F)ccc2cc(O)cc(-c3ncc4c(N5CCOC[C@]6(CCO6)C5)nc(OC[C@@]56CCCN5C[C@H](F)C6)nc4c3F)c12 [Example 837, 5-ethyl-6-fluoro-4-(8-fluoro-2-(((2R,7aS)-2-fluorotetrahydro-1H-pyrrolizin-7a(5H)-yl)methoxy)-4-((S)-1,6-dioxa-9-azaspiro[3.6]decan-9-yl)pyrido[4,3-d]pyrimidin-7-yl)naphthalen-2-ol] | < 2 | < 2 | < 2 | 3 | 2990 | 4 | 23 | 11 | 14 | 45 | 6
CCc1c(F)ccc2cc(O)cc(-c3ncc4c(N5CC6CCC(C5)C6(O)C(F)(F)F)nc(OC[C@@]56CCCN5C[C@H](F)C6)nc4c3F)c12 (stereo partly drawn) [Example 843, (1R,5S,8R)-3-(7-(8-ethyl-7-fluoro-3-hydroxynaphthalen-1-yl)-8-fluoro-2-(((2R,7aS)-2-fluorotetrahydro-1H-pyrrolizin-7a(5H)-yl)methoxy)pyrido[4,3-d]pyrimidin-4-yl)-8-(trifluoromethyl)-3-azabicyclo[3.2.1]octan-8-ol] | 265 | 26 | 79 | 55 | > 10000 | 6230 | 5300 | 2510 | 162 | 305 | 478
CCc1c(F)ccc2cc(O)cc(-c3ncc4c(N5CC6CCC(C5)C6CCO)nc(OC[C@@]56CCCN5C[C@H](F)C6)nc4c3F)c12 (stereo partly drawn) [Example 847, 5-ethyl-6-fluoro-4-(8-fluoro-2-(((2R,7aS)-2-fluorotetrahydro-1H-pyrrolizin-7a(5H)-yl)methoxy)-4-((1R,5S,8S)-8-(2-hydroxyethyl)-3-azabicyclo[3.2.1]octan-3-yl)pyrido[4,3-d]pyrimidin-7-yl)naphthalen-2-ol] | 140 | 39 | 20 | 270 | > 10000 | 4520 | 1640 | 1820 | 582 | 1430 | 494

Results, then the molecule that gave them:

IC50 (KRas^G12D) [nM] | IC50 (KRas^G12R) [nM] | IC50 (KRas^G12V) [nM] | IC50 [1] [nM] | IC50 [2] [nM] | IC50 [3] [nM] | IC50 [4] [nM] | IC50 [5] [nM] | IC50 [6] [nM] | IC50 [7] [nM] | IC50 [8] [nM] | Compound
8 | 5 | 3 | 87 | > 10000 | 3450 | 1140 | 2750 | 797 | 1200 | 186 | CCc1c(F)ccc2cc(O)cc(-c3ncc4c(N5CC6CCC(C(N)=O)(C6)C5)nc(OC[C@@]56CCCN5C[C@H](F)C6)nc4c3F)c12 (stereo partly drawn) [Example 834, 3-(7-(8-ethyl-7-fluoro-3-hydroxynaphthalen-1-yl)-8-fluoro-2-(((2R,7aS)-2-fluorotetrahydro-1H-pyrrolizin-7a(5H)-yl)methoxy)pyrido[4,3-d]pyrimidin-4-yl)-3-azabicyclo[3.2.1]octane-1-carboxamide]
9 | 7 | 4 | 38 | > 10000 | 575 | 299 | 422 | 145 | 239 | 180 | CCc1c(F)ccc2cc(O)cc(-c3ncc4c(N5CC6CCC(COCCO)(C6)C5)nc(OC[C@@]56CCCN5C[C@H](F)C6)nc4c3F)c12 (stereo partly drawn) [Example 840, 5-ethyl-6-fluoro-4-(8-fluoro-2-(((2R,7aS)-2-fluorotetrahydro-1H-pyrrolizin-7a(5H)-yl)methoxy)-4-(1-((2-hydroxyethoxy)methyl)-3-azabicyclo[3.2.1]octan-3-yl)pyrido[4,3-d]pyrimidin-7-yl)naphthalen-2-ol]
5 | < 2 | < 2 | 1 | > 10000 | 479 | 97 | 56 | 20 | 41 | 9 | CCc1c(F)ccc2cc(O)cc(-c3ncc4c(N5C[C@H]6CC[C@@H](C5)[C@@H]6O)nc(OC[C@@]56CCCN5C[C@H](F)C6)nc4c3F)c12 [Example 842, (1R,5S,8R)-3-(7-(8-ethyl-7-fluoro-3-hydroxynaphthalen-1-yl)-8-fluoro-2-(((2R,7aS)-2-fluorotetrahydro-1H-pyrrolizin-7a(5H)-yl)methoxy)pyrido[4,3-d]pyrimidin-4-yl)-3-azabicyclo[3.2.1]octan-8-ol]
41 | 11 | 10 | 64 | 3460 | 1570 | 1150 | 1190 | 80 | 159 | 241 | CCc1c(F)ccc2cc(O)cc(-c3ncc4c(N5CC6CCC(C5)C6CO)nc(OC[C@@]56CCCN5C[C@H](F)C6)nc4c3F)c12 (stereo partly drawn) [Example 845, 5-ethyl-6-fluoro-4-(8-fluoro-2-(((2R,7aS)-2-fluorotetrahydro-1H-pyrrolizin-7a(5H)-yl)methoxy)-4-((1R,5S,8S)-8-(hydroxymethyl)-3-azabicyclo[3.2.1]octan-3-yl)pyrido[4,3-d]pyrimidin-7-yl)naphthalen-2-ol]
159 | 38 | 28 | 102 | > 10000 | 4470 | 2850 | 2680 | 238 | 572 | 746 | CCc1c(F)ccc2cc(O)cc(-c3ncc4c(N5CC6CCC(C5)C6(C)O)nc(OC[C@@]56CCCN5C[C@H](F)C6)nc4c3F)c12 (stereo partly drawn) [Example 846, (1R,5S,8R)-3-(7-(8-ethyl-7-fluoro-3-hydroxynaphthalen-1-yl)-8-fluoro-2-(((2R,7aS)-2-fluorotetrahydro-1H-pyrrolizin-7a(5H)-yl)methoxy)pyrido[4,3-d]pyrimidin-4-yl)-8-methyl-3-azabicyclo[3.2.1]octan-8-ol]
39 | 12 | 9 | 100 | > 10000 | 2060 | 896 | 809 | 275 | 496 | 310 | CCc1c(F)ccc2cc(O)cc(-c3ncc4c(N5C[C@H]6CC[C@@H](C5)[C@H]6O)nc(OC[C@@]56CCCN5C[C@H](F)C6)nc4c3F)c12 [Example 848, (1R,5S,8S)-3-(7-(8-ethyl-7-fluoro-3-hydroxynaphthalen-1-yl)-8-fluoro-2-(((2R,7aS)-2-fluorotetrahydro-1H-pyrrolizin-7a(5H)-yl)methoxy)pyrido[4,3-d]pyrimidin-4-yl)-3-azabicyclo[3.2.1]octan-8-ol]
